Experimental data reported in patent US11229652B2, “Treatments for autoimmune disease” (THE PROVOST, FELLOWS, FOUNDATION SCHOLARS, AND THE OTHER …, priority 2014, dated 2022).
One block for each compound: values may come before it.

Key:
[1] = target: queuine-insertase enzyme complex (Homo sapiens, UniProt Q9BXR0); experiment: [14C] guanine displacement assay (queuine-insertase substrate); format: biochemical
Description: The skilled reader will be aware of methods for determining whether or not a particular molecule is a substrate for the queuine-insertase enzyme complex. For example, molecules capable of acting as a queuine-insertase enzyme complex substrate may be identified by use of a displacement assay as described below (FIG. 1):
Production of [8-^14C] Guanine Labeled tRNA (tRNA*)
Before adding the 8-[^14C] guanine solution to the reaction the solution was neutralised with an equal volume (vol/vol) 0.01 M NaOH, as the [8-^14C] Guanine is supplied in 0.01 M HCl aqueous solution. A stock solution of yeast tRNA from Saccharomyces cerevisiae was made to a concentration of 2 absorbance units (260 nm) in ultrapure nuclease-free water. The recombinant Escherichia coli (E. coli) tRNA guanine transglycosylase enzyme (E. coli TGT) containing an N-terminal polyhistidine tag was produced in BL21 BL21(DE3) tgt:Kmr cells as described previously (Boland et al., 2009).
The reaction was incubated for 2 h at 37° C. After incubation the reaction was made up to 400 μL with buffer. […] The tRNA* pellet was resuspended in 20 μL nuclease-free water and the concentration measured spectrophotometrically at A260. […]
After incubation the reaction was loaded onto the column and spun at 0.1×g for 10 seconds. […] The vials containing the flow-through and washes are counted for displaced [^14C] guanine. […]

HPRT [2] = target: T1, HPRT (Homo sapiens, UniProt P00492); experiment: HPRT assay (substrate or inhibitor of HPRT); format: biochemical; conditions: in vitro, FIG. 2
T1 sequence (P00492 1-218): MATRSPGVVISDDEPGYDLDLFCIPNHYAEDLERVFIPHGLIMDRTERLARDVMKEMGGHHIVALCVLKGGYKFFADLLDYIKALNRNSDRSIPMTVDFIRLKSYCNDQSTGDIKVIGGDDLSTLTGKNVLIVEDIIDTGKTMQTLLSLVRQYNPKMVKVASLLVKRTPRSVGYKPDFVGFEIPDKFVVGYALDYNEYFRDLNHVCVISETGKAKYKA
Description: Similarly, the skilled reader will be aware of methods suitable for determining whether a compound is a substrate or inhibitor of HPRT. For example, molecules that are […] for HPRT may be identified by use of the following assay:
Assay to Evaluate Compounds as Substrates or Inhibitors of the Hypoxanthine-Guanine Phosphoribosyltransferase Enzyme or ‘HPRT Assay’ (FIG. 2).
Preparation and Equilibration of Column:
Dowex-1×8, mesh size 200-400, was weighed out in a sterile 50 ml tube and washed 3 times with aqueous 1 M HCl to charge the resin. The resin was then washed 5-6 times with (20 mls each) Milli-Q H2O until a neutral pH was reached. Columns (Bio-rad 10 mL plastic columns) were set up with 1 mL of wet Dowex (wet mix applied, allowed to settle and more applied until a packed volume of 1 mL was reached). The packed resin was rinsed with 10 volumes (v/v) milli-Q H2O to ensure that a neutral pH and consistent packing was achieved.
HPRT Reactions are set up in 100 μL volume in triplicate with the following components: […]
After inactivation, the reactions were cooled to room temperature (using ice), before being applied to a 1 mL packed resin column of Dowex-1×8, mesh size 200-400. […] 15 mL of scintillation cocktail (Ecoscint A) was added and vials counted to evaluate the level of conversion of [8-^14C]-guanine to GMP. […]

wild-type T cells = experiment: Proliferation of wild-type cells; format: cell-based; conditions: 100 μM, FIG. 4a
Description: (§1) FIGS. 4a, 4b, 4c, and 4d depict the molecules effects on total percentage of proliferation in wild-type spleenocytes, HPRT knockout spleenocytes, HPRT:TGT double knockout spleenocytes, and wild-type versus single TGT knockout spleenocytes respectively;

TGT KO cells = experiment: Proliferation of TGT knockout cells; format: cell-based; conditions: 100 μM, FIG. 4d
Description: as §1

[3] = tested on: HPRT:TGT double knockout spleenocytes; experiment: Proliferation of TGT:HPRT double knockout cells; format: cell-based; conditions: 100 μM, FIG. 4c
Description: as §1

[4] = tested on: chronic monophasic EAE disease; experiment: Chronic monophasic EAE disease in mice; format: in vivo, mice (C57BL/6)
Protocol: To assess the potential of these compounds in vivo, a chronic monophasic EAE disease in mice was induced before treatment with the new chemical entity (NCE). EAE Disease was induced in 8-10 week old female mice (C57BL/6) by sub-cutaneous (s.c.) injection of 200 II emulsion containing 150 μg […] peptide (Genscript) in Complete Freund's Adjuvant (CFA; containing 5 mg/ml heat-inactivated Mycobacterium tuberculosis). On the same day, mice were administered 500 ng Pertussis Toxin (Kaketsuken, Japan) intraperitoneally (i.p.) and again two days later. Disease severity was recorded every 24 hours: 0-Normal; 1-flaccid tail; 2-imparied/wobbly gait; 3-complete hind limb weakness; 4-hind limb and forelimb paralysis; 5-moribund state/dead. Protocol is based on the Nature Protocols for Active induction of experimental allergic encephalomyelitis, which includes the scoring methodology: • Stromnes I M, Goverman J M (2006) Active induction of experimental allergic encephalomyelitis. Nat Protoc. 1(4):1810-9.
The EAE score relates to an assessment of disease progression with respect to issues like tail paralysis and limb paralysis, a higher score is a worse condition. A score of 1 indicates decreased tail tone, a score of 2 indicates hind leg weakness (paraparesis), a score of 3 indicates hind limb paralysis and/or incontinence. Note that the untreated animals have a continuous and progressive worsening of disease.
This contrasts with the sustained drop in body weight of non-treated EAE diseased animals to a level 86.4% that of controls at 21 dpi (17.8 grams versus 20.6 grams). Motor coordination and hind-limb strength were also evaluated by the ability of mice to cross a horizontal bar (FIG. 7). Non-diseased animals crossed the bar with an average time of 4.3±0.57 seconds.

HPRT [5] = target: T1, HPRT; conditions: higher for HPRT; cited from earlier work
[6] = tested on: Experimental Autoimmune Encephalomyelitis; EAE; conditions: earlier work; cited from earlier work
DNA = conditions: incorporated into DNA after HPRT activity; cited from earlier work

Chain of queuine-insertase enzyme complex (Q9BXR0 whole entry): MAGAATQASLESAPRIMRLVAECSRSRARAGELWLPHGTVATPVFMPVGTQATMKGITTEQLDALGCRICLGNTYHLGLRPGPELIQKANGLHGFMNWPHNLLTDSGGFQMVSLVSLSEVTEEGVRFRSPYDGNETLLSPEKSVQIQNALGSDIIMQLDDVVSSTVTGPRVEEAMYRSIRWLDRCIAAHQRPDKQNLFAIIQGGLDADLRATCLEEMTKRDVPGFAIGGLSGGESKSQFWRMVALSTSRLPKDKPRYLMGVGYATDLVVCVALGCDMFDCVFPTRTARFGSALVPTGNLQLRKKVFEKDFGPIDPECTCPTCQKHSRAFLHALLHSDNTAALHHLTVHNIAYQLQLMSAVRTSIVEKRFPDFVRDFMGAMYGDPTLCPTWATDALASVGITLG
Chain of queuine-insertase enzyme complex (Q9H974 whole entry partner): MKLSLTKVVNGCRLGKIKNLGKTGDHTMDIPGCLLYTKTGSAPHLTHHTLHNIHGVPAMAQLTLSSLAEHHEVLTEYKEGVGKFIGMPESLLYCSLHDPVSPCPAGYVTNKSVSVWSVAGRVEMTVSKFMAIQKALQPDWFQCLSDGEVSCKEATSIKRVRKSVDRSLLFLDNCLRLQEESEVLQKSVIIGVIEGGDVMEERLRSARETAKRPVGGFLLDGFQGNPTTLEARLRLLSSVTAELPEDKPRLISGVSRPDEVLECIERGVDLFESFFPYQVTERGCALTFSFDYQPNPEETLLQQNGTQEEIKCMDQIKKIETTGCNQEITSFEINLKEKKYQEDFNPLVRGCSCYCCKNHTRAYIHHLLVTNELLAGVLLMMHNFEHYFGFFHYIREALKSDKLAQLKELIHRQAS

substrate for TGT (queuine-insertase enzyme complex) ([1]; in vitro, recombinant TGT enzyme, FIG. 1): substrate for TGT
substrate or inhibitor of HPRT (HPRT [2]): not to be a substrate or inhibitor
Compound: Cl.Nc1nc2[nH]cc(CNCCCc3ccccc3)c2c(=O)[nH]1 [Compound I, N-((2-amino-4-oxo-4,7-dihydro-3H-pyrrolo[2,3-d]pyrimidin-5-yl)methyl)-3-phenylpropan-1-aminium chloride]
proliferation (wild-type T cells): less than 50%
effect on proliferation (TGT KO cells): lack of effect
effect on proliferation [3]: essentially unaffected
EAE score outcome after 4 daily treatments ([4]; EAE mice, 30 mg/kg, i.p., FIG. 5): disease free
time to reversal of symptoms ([4]; EAE mice, 30 mg/kg, i.p., highest dosage, FIG. 5): ≤ 24 h
EAE disease progression ([4]; EAE mice, lower doses, FIG. 5): disease progression was halted and reversed
motor coordination and hind-limb strength (horizontal bar crossing) ([4]; EAE mice, within 4 treatments, FIG. 7): fully restored the performance of EAE diseased mice to control levels
weight level relative to controls ([4]; treated EAE mice, 21 days post inoculation, FIG. 6): 96.6%
body weight ([4]; treated EAE mice, 21 days post inoculation, controls 20.6 grams, FIG. 6): 19.9 grams

maximum displacement of [14C] guanine ([1]; 200 μM compound, background ≤10 pmol, ≥50 pmol counts as positive substrate): 240 pmol
Compound: Nc1nc2[nH]cc(CN[C@H]3C=C[C@H](O)[C@@H]3O)c2c(=O)[nH]1 [queuine, 2-amino-5-((((1S,4S,5R)-4,5-dihydroxycyclopent-2-en-1-yl)amino)methyl)-3,7-dihydro-4H-pyrrolo[2,3-d]pyrimidin-4-one, reference compound]

Compound: Nc1nc2nc[nH]c2c(=S)[nH]1 [Example 6TG, 6-thioguanine]
substrate potency for HPRT relative to queuine-insertase enzyme complex (HPRT [5]): approx. 10 fold
effect on the murine model of chronic MS (EAE) [6]: dramatic effect
genotoxicity (DNA): genotoxic
